Legend:
KLK1 = KLK1 (Homo sapiens, UniProt P06870); experiment: Inhibitory activity against KLK1 in vitro (biochemical assay)
In short: (§1)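 Compounds were dispensed acoustically from DMSO and tested in duplicate. IC50 values came from nonlinear regression curve fitting.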

plasma kallikrein (PKa) [1] = target: T1, plasma kallikrein (PKa) (Homo sapiens, UniProt P03952); experiment: PKa inhibition in kaolin-activated human platelet-poor plasma (PPP); format: biochemical; conditions: Pro-Phe-Arg-AMC substrate, fluorescence signal
T1 construct: purchased R & D 2497-SE
T1 sequence (P03952 391-638 limits assumed): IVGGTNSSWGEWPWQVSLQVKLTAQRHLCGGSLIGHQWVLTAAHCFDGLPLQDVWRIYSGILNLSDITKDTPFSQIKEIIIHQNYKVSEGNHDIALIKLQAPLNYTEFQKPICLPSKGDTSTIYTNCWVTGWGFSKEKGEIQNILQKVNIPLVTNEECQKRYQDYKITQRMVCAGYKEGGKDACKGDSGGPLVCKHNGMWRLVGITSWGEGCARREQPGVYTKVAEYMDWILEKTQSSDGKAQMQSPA
T1 sequence (P03952 20-390 partner limits assumed): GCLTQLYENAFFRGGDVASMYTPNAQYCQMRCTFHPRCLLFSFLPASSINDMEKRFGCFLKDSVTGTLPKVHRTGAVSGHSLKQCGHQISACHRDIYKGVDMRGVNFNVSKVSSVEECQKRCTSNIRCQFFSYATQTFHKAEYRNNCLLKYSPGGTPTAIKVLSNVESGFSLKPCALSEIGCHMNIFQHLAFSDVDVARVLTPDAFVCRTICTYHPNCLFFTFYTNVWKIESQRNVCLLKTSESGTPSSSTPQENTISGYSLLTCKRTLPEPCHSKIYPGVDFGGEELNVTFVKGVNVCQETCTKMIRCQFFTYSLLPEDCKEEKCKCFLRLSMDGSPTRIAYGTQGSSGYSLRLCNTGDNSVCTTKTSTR
Experimental: Test Example 2. Evaluation of the compounds of the present invention in terms of PKa Inhibition in Kaolin-Activated Human PPP: Platelet-poor plasma (PPP) obtained from human whole blood, anticoagulated with Na - Citrate, was incubated with various concentrations of the test compounds and 25, 75, 250, or 750 µg/mL kaolin in assay buffer for 20 minutes at 37°C, so that a concentration response of the test compounds was obtained with respect to various kaolin concentrations. The positive drug was diluted in accordance with the reference concentration and diluted 3-fold with the diluent as the first point.
50 nL of compounds were then transferred to a 384 assay plate containing 2 replicates per well. The 384 assay plate was centrifuged at 1000 rpm/min. 2.5 µL of human plasma working solution was added to each assay well. The 384 assay plate was centrifuged at 1000 RPM. 2.5 µL of kaolin working solution was added to each assay well. The 384 assay plate was centrifuged at 1000 RPM and incubated at 25°C for 20 minutes. 5 µL of Pro-Phe-Arg-AMC working solution was added to each assay well. The 384 assay plate was centrifuged at 1000 RPM and incubated at 25°C for 60 minutes. BMG reads the fluorescence signal.
The percent inhibition of the compound was calculated according to the following formula: [formula]

plasma kallikrein (PKa) [2] = target: T1, plasma kallikrein (PKa); experiment: Inhibitory activity against plasma kallikrein in vitro (fluorescence intensity enzyme assay, Pro-Phe-Arg-AMC substrate); format: biochemical; conditions: Pro-Phe-Arg-AMC substrate
In short: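 Fluorescence intensity enzyme assay with 10 nM enzyme and 60 µM Pro-Phe-Arg-AMC (final concentrations). Compounds in DMSO, tested in duplicate over a dose series. IC50 from nonlinear regression curve fitting.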

FXIa = FXIa (Homo sapiens, UniProt P03951); experiment: Inhibitory activity against FXIa in vitro (biochemical assay)
FXIa, sequence (P03951 388-625 limits assumed): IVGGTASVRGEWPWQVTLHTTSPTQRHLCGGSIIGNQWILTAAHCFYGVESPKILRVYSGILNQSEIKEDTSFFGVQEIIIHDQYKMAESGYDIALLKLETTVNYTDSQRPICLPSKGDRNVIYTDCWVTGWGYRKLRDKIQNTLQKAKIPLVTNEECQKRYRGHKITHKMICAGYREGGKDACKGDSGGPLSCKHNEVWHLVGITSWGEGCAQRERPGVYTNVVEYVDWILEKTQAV
FXIa, sequence (P03951 19-387 partner limits assumed): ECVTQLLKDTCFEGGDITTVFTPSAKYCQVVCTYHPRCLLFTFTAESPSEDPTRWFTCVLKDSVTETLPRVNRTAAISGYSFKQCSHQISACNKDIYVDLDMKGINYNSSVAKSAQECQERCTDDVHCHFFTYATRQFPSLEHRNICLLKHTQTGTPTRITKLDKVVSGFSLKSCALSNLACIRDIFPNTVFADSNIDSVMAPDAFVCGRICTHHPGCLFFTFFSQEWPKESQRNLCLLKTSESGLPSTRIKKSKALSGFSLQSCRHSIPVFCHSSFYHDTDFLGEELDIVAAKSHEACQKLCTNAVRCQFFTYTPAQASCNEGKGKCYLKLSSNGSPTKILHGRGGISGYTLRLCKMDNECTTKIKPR
In short: as §1

[3] = plasma kallikrein enzyme assay, read-out: PKa IC50

KLK1, sequence (P06870 25-262, species assumed): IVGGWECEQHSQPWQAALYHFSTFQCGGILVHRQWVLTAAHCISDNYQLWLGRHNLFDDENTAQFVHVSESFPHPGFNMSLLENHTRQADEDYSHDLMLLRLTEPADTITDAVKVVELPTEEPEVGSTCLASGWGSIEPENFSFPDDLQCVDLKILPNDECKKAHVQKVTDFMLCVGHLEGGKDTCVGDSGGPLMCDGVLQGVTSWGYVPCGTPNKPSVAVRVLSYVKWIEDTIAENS

Row | SMILES | IC50 (KLK1; values given in µM) [µM] | IC50 (plasma kallikrein (PKa) [1]) [nM] | IC50 (plasma kallikrein (PKa) [2]; [3]) [nM] | IC50 (FXIa; values given in µM) [µM] | IC50 (KLK1; values in nM) [µM] | IC50 (FXIa; values in nM) [µM] | IC50 (plasma kallikrein (PKa) [2]; PKa IC50, plasma kallikrein enzyme assay) [nM]
1 | COCc1nn(Cc2ccc(Cn3ccccc3=O)cc2)cc1C(=O)NCc1c(C)cc(N)nc1C [Compound 2, N-((6-amino-2,4-dimethylpyridin-3-yl)methyl)-3-(methoxymethyl)-1-(4-((2-oxopyridin-1(2H)-yl)methyl)benzyl)-1H-pyrazole-4-carboxamide] | > 10 | 6.8 | 0.517 | > 10 |  |  | 
2 | COCc1nn(Cc2ccc(Cn3ccccc3=O)cc2)cc1C(=O)NCc1ccc(C(=N)N)cc1F [Compound 241] | > 10 | 19.3 | 0.08 | > 10 |  |  | 
3 | Nc1noc2ccc(CNC(=O)c3cnn(Cc4ccc(Cn5ccccc5=O)cc4)c3)cc12 [Compound 214] | > 10 | 14.9 | 0.16 | > 10 |  |  | 
4 | N#Cc1cccc([C@@H](NCC2CC2)c2ccc(F)c(NC(=O)c3cc(C(F)(F)F)nn3-c3cccc(CN)c3)c2)c1 [Berotralstat, reference compound] | > 10 | 56.3 | 2.21 | > 10 |  |  | 
5 | Nc1nccc2cc(CNC(=O)c3ncn(Cc4ccc(Cn5ccccc5=O)cc4)n3)ccc12 [Compound 76] | > 10 | 12.5 | 0.96 | > 10 |  |  | 
6 | N=C(N)c1ccc(CNC(=O)c2coc(Cc3cn4cc(C5CC5)ccc4n3)n2)cc1 [Compound 37] | > 10 | 6.7 | 0.16 | > 10 |  |  | 
7 | Cc1cc(N)nc(C)c1CNC(=O)c1ncn(Cc2ccc(Cn3cc(F)ccc3=O)cc2)n1 [Compound 23] | > 10 | 7.99 | < 0.05 | > 10 |  |  | 
8 | COCc1nn(Cc2ccc(Cn3cccn3)cc2)cc1C(=O)NCc1c(C)cc(N)nc1C [Compound 14, 1-(4-((1H-pyrazol-1-yl)methyl)benzyl)-N-((6-amino-2,4-dimethylpyridin-3-yl)methyl)-3-(methoxymethyl)-1H-pyrazol-4-carboxamide] |  | 7.51 | 0.213 |  | > 0.5 | > 0.5 | 
9 | N=C(N)c1ccc(CNC(=O)c2cnn(Cc3ccc(Oc4ccccc4)cc3)c2)cc1 [Compound 128] | > 10 | 13.2 |  | > 10 |  |  | 0.56
10 | Cc1cc(N)nc(C)c1CNC(=O)c1cn(Cc2ccc(Cn3ccccc3=O)cc2)nn1 [Compound 1, N-((6-amino-2,4-dimethylpyridin-3-yl)methyl)-1-(4-((2-oxopyridin-1(2H)-yl)methyl)benzyl)-1H-1,2,3-triazole-4-carboxamide] | > 10 | 7.6 | 0.178 | > 10 |  |  | 
11 | N=C(N)c1ccc(CNC(=O)c2cnn(Cc3ccc(CC4CC4)cc3)c2)cn1 [Compound 242] | > 10 | 40.7 | 2.27 | > 10 |  |  | 
12 | COCc1nn(Cc2cn3cc(C4CC4)ccc3n2)cc1C(=O)NCc1ccc(C(=N)N)cc1 [Compound 39] | > 10 | 73.4 | < 0.05 | > 10 |  |  | 
13 | N=C(N)c1ccc(CNC(=O)c2cnn(Cc3ccc(CC4CC4)cc3)c2C(F)(F)F)cc1 [Compound 109] | > 10 | 8.38 | 0.35 | > 10 |  |  | 
14 | N#Cc1cc(N2CC3C(C2)C3(F)F)ccc1Cn1cc(C(=O)NCc2ccc(C(=N)N)cc2)cn1 (stereo not shown) [Compound 40] |  | 2.15 | < 0.05 |  |  |  | 
15 | Cc1cc(N)nc(C)c1CNC(=O)c1coc(Cc2cn3cc(C4CC4)ccc3n2)n1 [Compound 19] | > 10 | 23.5 | 0.633 | > 10 |  |  | 
16 | Cc1cc(N)nc(C)c1CNC(=O)c1nn(Cc2ccc(Cn3ccccc3=O)cc2)cc1C1CCCO1 (stereo not shown) [Compound 4, N-((6-amino-2,4-dimethylpyridin-3-yl)methyl)-1-(4-((2-oxopyridin-1(2H)-yl)methyl)benzyl)-4-(tetrahydrofuran-2-yl)-1H-pyrazole-3-carboxamide] | > 10 | 13.3 | 0.155 | > 10 |  |  | 
17 | Cc1cc(Cn2cc(C(=O)NCc3ccc(C(=N)N)cc3)cn2)cc(C)c1CC1CC1 [Compound 381] | > 10 |  | 0.03 | > 10 |  |  | 
18 | Nc1ccnc(CNC(=O)c2cn(Cc3ccc(Cn4ccccc4=O)cc3)nc2C2COC2)c1F [Compound 274] | > 10 |  | 0.6 | > 10 |  |  | 

Row | SMILES | IC50 (KLK1; values given in µM) [µM] | IC50 (plasma kallikrein (PKa) [1]) [nM] | IC50 (plasma kallikrein (PKa) [2]; [3]) [nM] | IC50 (FXIa; values given in µM) [µM] | IC50 (KLK1; values in nM) [µM] | IC50 (FXIa; values in nM) [µM] | IC50 (plasma kallikrein (PKa) [2]; PKa IC50, plasma kallikrein enzyme assay) [nM]
19 | Cc1cc(N)nc(C)c1CNC(=O)c1ccc(Cc2ccc3ncc(Cl)cc3c2)s1 [Compound 3, N-((6-amino-2,4-dimethylpyridin-3-yl)methyl)-5-((3-chloroquinolin-6-yl)methyl)thiophene-2-carboxamide] |  |  | 9.27 |  | < 0.5 | < 0.5 | 
20 | COCc1cn(Cc2ccc(Cn3ccccc3=O)cc2)nc1C(=O)NCc1c(C)cc(N)nc1C [Compound 60] | > 10 |  | 0.65 | > 10 |  |  | 
21 | COCc1nn(Cc2ccc(Cn3ccccc3=O)cc2)cc1C(=O)NCc1cn2c(n1)CNCC2 [Compound 118] | > 10 |  | 0.92 | > 10 |  |  | 
22 | Cc1cc(N)nc(C)c1CNC(=O)c1csc(Cc2ccc(Cn3ccccc3=O)cc2)n1 [Compound 68] | > 10 |  | 0.32 | > 10 |  |  | 
23 | Cc1cc(N)nc(C)c1CNC(=O)c1ncn(Cc2ccc(Cn3cccc(C)c3=O)cc2)n1 [Compound 56] | > 10 |  | 0.16 | > 10 |  |  | 
24 | Cc1cc(N)nc(C)c1CNC(=O)c1cn(Cc2ccc(CN3CCOCC3=O)cc2)nc1C(F)F [Compound 64] | > 10 |  | 2.99 | > 10 |  |  | 
25 | CN1CCc2cnc(CNC(=O)c3cn(Cc4ccc(Cn5ccccc5=O)cc4)nc3C(F)(F)F)c(F)c21 [Compound 389] | > 10 |  | 1.45 | > 10 |  |  | 
26 | COc1ccc(F)c(CNC(=O)c2cn(Cc3ccc(Cn4ccccc4=O)cc3)nc2CO[C@H]2CCN(C)C2)c1F [Compound 225] | > 10 |  | 2.86 | > 10 |  |  | 
27 | N=C(N)c1ccc(CNC(=O)c2cnn(Cc3ccc(CC4CC4)cc3)c2)cc1F [Compound 321] | > 10 |  | 2.71 | > 10 |  |  | 
28 | N=C(N)c1ccc(CNC(=O)c2cnn(Cc3cc(F)c(CC4CC4)c(F)c3)c2)cc1 [Compound 380] | > 10 |  | 0.27 | > 10 |  |  | 
29 | Cc1cc(N)nc(C)c1CNC(=O)c1cn(Cc2ccc3ncc(Cl)cc3c2)nn1 [Compound 9, N-((6-amino-2,4-dimethylpyridin-3-yl)methyl)-1-(3-chloroquinolin-6-yl)methyl-1H-1,2,3-triazole-4-carboxamide] |  |  | 0.406 |  | < 0.5 | < 0.5 | 
30 | Cc1cc(N)nc(C)c1CNC(=O)c1ncn(Cc2ccc(Cn3ccccc3=O)cc2)n1 [Compound 11, N-((6-amino-2,4-dimethylpyridin-3-yl)methyl)-1-(4-((2-oxopyridin-1(2H)-yl)methyl)benzyl)-1H-1,2,4-triazole-3-carboxamide] |  | 6.08 | 0.03 |  | > 0.5 | > 0.5 | 
31 | CCc1c(N)nc(C)c(CNC(=O)c2ncn(Cc3ccc(Cn4ccccc4=O)cc3)n2)c1C [Compound 257] | > 10 |  | 0.67 | > 10 |  |  | 
32 | N=C(N)c1ccc(CNC(=O)c2cnn(Cc3cc(F)c(OCC4CC4)c(F)c3)c2)cc1 [Compound 345] | > 10 |  | 1.98 | > 10 |  |  | 
33 | N=C(N)c1ccc(CNC(=O)c2cnn(Cc3c(F)cc(N4CC5C(C4)C5(F)F)cc3F)c2)cc1 (stereo not shown) [Compound 368] | > 10 |  | 0.19 | > 10 |  |  | 
34 | O=C(NCc1ncc2cc[nH]c2c1F)c1cn(Cc2ccc(Cn3ccccc3=O)cc2)nc1C1COC1 [Compound 337, N-((7-fluoro-1H-pyrrolo[3,2-c]pyridin-6-yl)methyl)-3-(oxetan-3-yl)-1-(4-((2-oxopyridin-1(2H)-yl)methyl)benzyl)-1H-pyrazole-4-carboxamide] | > 10 |  | 2.23 | > 10 |  |  | 
35 | Cc1cc(N)nc(C)c1CNC(=O)c1ncn(Cc2cn3cc(C4CC4)ccc3n2)n1 [Compound 47] | > 10 |  | 0.18 | > 10 |  |  | 
36 | Cc1cc(N)nc(C)c1CNC(=O)c1cnc(Cc2cn3cc(C4CC4)ccc3n2)o1 [Compound 18] | > 10 | 7.92 | 0.408 | > 10 |  |  | 

From patent publication EP4737450A1 (Longwood Pharmaceuticals (Hangzhou) Co., Ltd, priority 2023, dated 2025)
